Consider 12 molecules from publication PMC10726358 (Journal of Medicinal Chemistry, 2023).

pIC50: −log10 of the molar value. ≈ marks a conversion by molar mass, not a printed value. Where “and” joins values, the source holds several entries; their conditions need not be identical. Identical values can stand only once. Counter-ions that a name gives are not always drawn. Like-named read-outs stand apart in the source and are kept apart here. Where only a bound is given, the exact number is not on record here.

Series [1] in a line: Chromatographic LogD at pH 7.4. Conditions: pH 7.4.
The next series relates to BRD4 BD1. It counts as binding, human. As to conditions: TR-FRET. How it is done: (§1) As a strategic decision, every compound synthesized across all of GSK’s bromodomain research projects was tested in both a BRD4 BD1 and a BRD4 BD2 TR-FRET assay as part of tier 1 data generation. […] LipE is a straightforward, yet powerful metric for medicinal chemistry teams to normalize potency relative to lipophilicity, a critical factor both for parameters of the human dose equation and also for promiscuity.[43],[44] To aid interpretation, diagonal lines representing different LipE values are shown, with the most desirable space found toward the top left-hand area of the plot representing molecules with the comparatively highest potency per unit of lipophilicity.
(§2) All TR-FRET and hWB cytokine assays have been described previously.[54]

In a further series the test system is BRD4 BD2. Kind of series: BRD4 BD2 TR-FRET assay. Type of series: binding, human. The method, then: as §1, §2
The next series can be described thus: CAD aqueous solubility. The method, then:
(§3) To understand cellular target engagement, 21 was tested in an LPS-stimulated hWB assay measuring inhibition of the inflammatory mediator MCP-1 secretion.
ChromatographicLogD at pH 7.4, artificial membrane permeability, CLND solubility, and CAD solubility were measured using published protocols.[55]

The subject of the next series is MCP-1. Kind of series: LPS-stimulated human whole blood (hWB) MCP-1 release assay. Type of series: cell-based. As to conditions: for IC50: read-out: hWB MCP-1 pIC50 (converted).
Source text: The utility of a chemical probe in target validation is directly related to its quality, with important publications detailing requirements to aid researchers.[36]−[38] […] It was accepted that selectivity would be judged initially through a mutant BRD4 TR-FRET assay and would likely shift depending on the protein construct and assay format. […] Previous studies have shown that BET BD1 inhibition is sufficient to inhibit in vitro production of MCP-1 in LPS-stimulated hWB and, as such, served as a relevant measure of cellular target engagement and, concomitantly, proof of cellular permeability.[12],[39] Selectivity over other human bromodomains outside of the BET family, known collectively as non-BET bromodomains, was also required,[40] with a ≥ 100-fold selectivity window targeted. To ensure the molecules remained within developable chemical space, a target property forecast index (PFI) as defined by chromLogDpH7.4 + number of aromatic rings ≤6 was set.[41]
as §3, §2

The mark [2] stands for this setting: LPS-stimulated human whole blood.

In turn, `Cc1cc(-c2nc3ccccc3n2C[C@@H]2CCCN(C(=O)C3CCC(N)CC3)C2)cn(C)c1=O` (stereo in doubt) [Compound 28, 5-(1-(((S)-1-((1r,4R)-4-Aminocyclohexane-1-carbonyl)piperidin-3-yl)methyl)-1H-benzo [d]imidazole-2-yl)-1,3-dimethylpyridin-2(1H)-one] had a chromatographic logD in series [1] of 1.4. In the series on BRD4 BD1, the “BRD4 BD1 FRET pIC50” value came to 7.9 and the “fold selectivity (BRD4 BD1 over BRD4 BD2)” value (shortened to “fold selectivity”) stood at 631 fold. Besides, the “BRD4 BD2 FRET pIC50” value with BRD4 BD2 is 5.1. The molecule also came in with a solubility in “CAD aqueous solubility” not below 155 µg/mL. In addition, the IC50 in the series on MCP-1 (setting [2]) is 316 nM.

In the case of `Cc1cc(-c2nc3ccccc3n2C[C@@H]2CCCN(C(=O)CCCN)C2)cn(C)c1=O` [Compound 21, (S)-5-(1-((1-(4-Aminobutanoyl)piperidin-3-yl)methyl)-1H-benzo[d]imidazole-2-yl)-1,3-dimethylpyridin-2(1H)-one], the chromatographic logD in series [1] stood at 1.2. Also, in the series on BRD4 BD1, the “BRD4 BD1 FRET pIC50” value was 7.8 and the “fold selectivity” value amounted to 158 fold. Besides, in the series on BRD4 BD2, the “BRD4 BD2 FRET pIC50” value came to 5.6. Also, in the series “CAD aqueous solubility”, the concentration in solution (solubility) was 113 µg/mL (≈ 268 µM). Moreover, the pIC50 in the series on MCP-1 (LPS-stimulated human whole blood, read-out: hWB MCP-1 IC50) is 6.30. The IC50 with MCP-1 (setting [2]) is 501 nM. Moreover, the “drop of hWB activity compared to BRD4 BD1 potency” value in the series on MCP-1 (hWB MCP-1 vs BRD4 BD1 TR-FRET) is reported as 40 fold.

For `Cc1cc(-c2nc3ccccc3n2C[C@@H]2CCCN(C(=O)C3CNC3)C2)cn(C)c1=O` [Compound 22, (S)-5-(1-((1-(Azetidine-3-carbonyl)piperidin-3-yl)methyl)-1H-benzo[d]imidazole-2-yl)-1,3-dimethylpyridin-2(1H)-one], the chromatographic logD in series [1] came out at 1.2. Moreover, in the series with BRD4 BD1, the “BRD4 BD1 FRET pIC50” value was 8.0 and the “fold selectivity” value turned out to be 126 fold. In the series on BRD4 BD2, the “BRD4 BD2 FRET pIC50” value is reported as 5.9. For the same molecule, in “CAD aqueous solubility”, the solubility is not below 169 µg/mL. In addition, the IC50 in the series on MCP-1 (setting [2]) is 631 nM.

Regarding `Cc1cc(-c2nc3ccccc3n2C[C@@H]2CCCN(C(=O)[C@H]3C[C@H](N)C3)C2)cn(C)c1=O` [Compound 23, 5-(1-(((S)-1-((1r,3S)-3-Aminocyclobutane-1-carbonyl)piperidin-3-yl)methyl)-1H-benzo[d]imidazole-2-yl)-1,3-dimethylpyridin-2(1H)-one], the chromatographic logD in series [1] was 1.2. In addition, in the series with BRD4 BD1, the “BRD4 BD1 FRET pIC50” value was found to be 7.9 and the “fold selectivity” value stood at 316 fold. Further, the “BRD4 BD2 FRET pIC50” value with BRD4 BD2 amounted to 5.4. Moreover, the solubility in “CAD aqueous solubility” is not below 230 µg/mL. In the series with MCP-1 (setting [2]), the IC50 was 200 nM.

In turn, `Cc1cc(-c2nc3ccccc3n2C[C@@H]2CCCN(C(=O)[C@H]3CCNC3)C2)cn(C)c1=O` [Compound 24, 1,3-Dimethyl-5-(1-(((S)-1-((S)-pyrrolidine-3-carbonyl)piperidin-3-yl)methyl)-1H-benzo[d]imidazole-2-yl)pyridin-2(1H)-one] showed a chromatographic logD in series [1] of 1.3. In addition, in the series on BRD4 BD1, the “BRD4 BD1 FRET pIC50” value amounted to 7.6 and the “fold selectivity” value was 200 fold. Moreover, the “BRD4 BD2 FRET pIC50” value with BRD4 BD2 was determined as 5.3. The solubility in “CAD aqueous solubility” is not below 208 µg/mL. The IC50 in the series on MCP-1 (setting [2]) is 1000 nM.

`Cc1cc(-c2nc3ccccc3n2C[C@@H]2CCCN(C(=O)[C@H]3CC[C@H](N)C3)C2)cn(C)c1=O` [Compound 25, 5-(1-(((S)-1-((1S,3S)-3-Aminocyclopentane-1-carbonyl)piperidin-3-yl)methyl)-1H-benzo[d]imidazole-2-yl)-1,3-dimethylpyridin-2(1H)-one]: the chromatographic logD in series [1] was 1.4. Besides, in the series with BRD4 BD1, the “BRD4 BD1 FRET pIC50” value came out at 7.7; the “fold selectivity” value is 500 fold and 501 fold. Besides, in the series with BRD4 BD2, the “BRD4 BD2 FRET pIC50” value is 5.0. Also, the solubility in “CAD aqueous solubility” was not below 157 µg/mL. Further, the IC50 in the series on MCP-1 (setting [2]) was 1000 nM.

In turn, `Cc1cc(-c2nc3ccccc3n2C[C@@H]2CCCN(C(=O)c3cnc[nH]3)C2)cn(C)c1=O` [Compound 26, (S)-5-(1-((1-(1H-Imidazole-5-carbonyl)piperidin-3-yl)methyl)-1H-benzo[d]imidazole-2-yl)-1,3-dimethylpyridin-2(1H)-one, Formic Acid Salt] registered a chromatographic logD in series [1] of 1.9. In addition, in the series with BRD4 BD1, the “BRD4 BD1 FRET pIC50” value came to 7.0 and the “fold selectivity” value came to 126 fold. In addition, the “BRD4 BD2 FRET pIC50” value with BRD4 BD2 came out at 4.9. In the series “CAD aqueous solubility”, this molecule yielded a solubility not below 160 µg/mL. Moreover, the IC50 with MCP-1 (setting [2]) was 2510 nM.

For the molecule `Cc1cc(-c2nc3ccccc3n2C[C@@H]2CCCN(C(=O)C3CCNCC3)C2)cn(C)c1=O` [Compound 27, (S)-1,3-Dimethyl-5-(1-((1-(piperidine-4-carbonyl)piperidin-3-yl)methyl)-1H-benzo[d]imidazole-2-yl)pyridin-2(1H)-one], the chromatographic logD in series [1] is 1.3. Further, in the series with BRD4 BD1, the “BRD4 BD1 FRET pIC50” value stood at 7.5 and the “fold selectivity” value is recorded as 398 fold. Moreover, the “BRD4 BD2 FRET pIC50” value in the series with BRD4 BD2 turned out to be 4.9. In the series “CAD aqueous solubility”, the solubility was not below 215 µg/mL. Besides, the IC50 with MCP-1 (setting [2]) is 1000 nM.

For `Cc1cc(-c2nc3ccccc3n2C[C@@H]2CCCN(C(=O)C3CCCN(C)C3)C2)cn(C)c1=O` (stereo partly drawn) [Compound 29, 1,3-Dimethyl-5-(1-(((3S)-1-(1-methylpiperidine-3-carbonyl)piperidin-3-yl)methyl)-1H-benzo[d]imidazole-2-yl)pyridin-2(1H)-one], the chromatographic logD in series [1] came to 1.7. In the series on BRD4 BD1, the “BRD4 BD1 FRET pIC50” value is 6.8 and the “fold selectivity” value turned out to be 50 fold. Moreover, in the series on BRD4 BD2, the “BRD4 BD2 FRET pIC50” value was 5.1. In “CAD aqueous solubility”, this molecule displayed a solubility not below 204 µg/mL. For the same molecule, the IC50 in the series on MCP-1 (setting [2]) is 1580 nM.

`Cc1cc(-c2nc3ccccc3n2C[C@@H]2CCCN(C(=O)C3CCN(C)CC3)C2)cn(C)c1=O` [Compound 30, (S)-1,3-Dimethyl-5-(1-((1-(1-methylpiperidine-4-carbonyl)piperidin-3-yl)methyl)-1H-benzo[d]imidazole-2-yl)pyridin-2(1H)-one] displayed a chromatographic logD in series [1] of 1.5. In the series on BRD4 BD1, the “BRD4 BD1 FRET pIC50” value was found to be 7.6 and the “fold selectivity” value is listed as 631 fold. For the same molecule, in the series with BRD4 BD2, the “BRD4 BD2 FRET pIC50” value is recorded as 4.8. Moreover, the solubility in the series “CAD aqueous solubility” was not below 237 µg/mL. Further, the IC50 with MCP-1 (setting [2]) was 251 nM.

In series [1], `Cc1cc(-c2nc3ccccc3n2C[C@@H]2CCCN(C(=O)C3CCOCC3)C2)cn(C)c1=O` [Compound 32, (S)-1,3-Dimethyl-5-(1-((1-(tetrahydro-2H-pyran-4-carbonyl)piperidin-3-yl)methyl)-1H-benzo[d]imidazole-2-yl)pyridin-2(1H)-one] gave a chromatographic logD of 2.7. Besides, in the series with BRD4 BD1, the “BRD4 BD1 FRET pIC50” value is 6.7 and the “fold selectivity” value was found to be 100 fold. Also, in the series on BRD4 BD2, the “BRD4 BD2 FRET pIC50” value turned out to be 4.7. In “CAD aqueous solubility”, the solubility is not below 245 µg/mL. Also, in the series on MCP-1 (setting [2]), the IC50 was 794 nM.

The molecule `CC(=O)N1CCC(C(=O)N2CCC[C@@H](Cn3c(-c4cc(C)c(=O)n(C)c4)nc4ccccc43)C2)CC1` [Compound 33, (S)-5-(1-((1-(1-Acetylpiperidine-4-carbonyl)piperidin-3-yl)methyl)-1H-benzo[d]imidazole-2-yl)-1,3-dimethylpyridin-2(1H)-one] yielded a chromatographic logD in series [1] of 2.2. Moreover, in the series on BRD4 BD1, the “BRD4 BD1 FRET pIC50” value stood at 6.5 and the “fold selectivity” value is 63 fold. Moreover, in the series on BRD4 BD2, the “BRD4 BD2 FRET pIC50” value is 4.7. In “CAD aqueous solubility”, this molecule gave a solubility not below 205 µg/mL. Also, in the series on MCP-1 (setting [2]), the IC50 is 2000 nM.
